Data on 24 compounds can be found in US20240360126A1, “PYRAZOLO[3,4-B]PYRIDINE COMPOUNDS FOR THE TREATMENT OF AUTOIMMUNE DISEASE” (Hoffmann-La Roche Inc., priority 2021, published 2024).

Structures are written as SMILES.

This assay concerns the target T1, human TLR7 (Homo sapiens, UniProt Q9NYK1).
T1 construct: host or cells: HEK293 (HEK-Blue hTLR7)
T1 sequence (Q9NYK1 27-1049): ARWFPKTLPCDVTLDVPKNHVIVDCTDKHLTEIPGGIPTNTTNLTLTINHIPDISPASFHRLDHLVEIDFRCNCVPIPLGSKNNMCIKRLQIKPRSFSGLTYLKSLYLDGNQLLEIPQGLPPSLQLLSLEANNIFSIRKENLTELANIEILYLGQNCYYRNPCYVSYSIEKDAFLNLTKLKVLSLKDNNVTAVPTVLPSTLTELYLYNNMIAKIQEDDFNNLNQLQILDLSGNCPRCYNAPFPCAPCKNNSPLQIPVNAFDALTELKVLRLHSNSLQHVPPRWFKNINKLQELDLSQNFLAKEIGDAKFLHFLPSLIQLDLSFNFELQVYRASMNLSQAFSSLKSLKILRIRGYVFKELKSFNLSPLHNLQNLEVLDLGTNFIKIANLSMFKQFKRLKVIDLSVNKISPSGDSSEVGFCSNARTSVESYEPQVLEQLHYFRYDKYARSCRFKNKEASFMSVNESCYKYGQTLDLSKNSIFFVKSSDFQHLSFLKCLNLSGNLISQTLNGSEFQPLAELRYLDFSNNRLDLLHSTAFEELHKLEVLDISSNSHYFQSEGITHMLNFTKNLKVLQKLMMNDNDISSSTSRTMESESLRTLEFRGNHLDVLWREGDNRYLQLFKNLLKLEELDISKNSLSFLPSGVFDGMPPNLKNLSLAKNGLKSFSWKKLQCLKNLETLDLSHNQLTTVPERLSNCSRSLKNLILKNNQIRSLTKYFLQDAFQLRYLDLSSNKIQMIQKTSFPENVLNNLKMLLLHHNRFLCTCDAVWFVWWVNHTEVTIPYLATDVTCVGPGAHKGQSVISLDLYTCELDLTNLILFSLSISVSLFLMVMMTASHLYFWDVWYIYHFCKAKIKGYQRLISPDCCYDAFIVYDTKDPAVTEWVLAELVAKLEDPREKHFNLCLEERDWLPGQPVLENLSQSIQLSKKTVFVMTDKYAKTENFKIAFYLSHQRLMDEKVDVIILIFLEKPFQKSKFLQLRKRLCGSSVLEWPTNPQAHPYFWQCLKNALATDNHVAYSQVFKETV
The assay can be described thus: HEK293-Blue-hTLR-7 cells assay. The assay is classed as cell-based. To be noted: HEK293-Blue-hTLR7 cells, R848 stimulation, 20 hrs; read-out: HEK/hTLR7 IC50. The source says:
A stable HEK293-Blue-hTLR-7 cell line was purchased from InvivoGen (Cat. #: hkb-htlr7, San Diego, California, USA). These cells were originally designed for studying the stimulation of human TLR7 by monitoring the activation of NF-κB. A SEAP (secreted embryonic alkaline phosphatase) reporter gene was placed under the control of the IFN-β minimal promoter fused to five NF-κB and AP-1-binding sites. The SEAP was induced by activating NF-κB and AP-1 via stimulating HEK-Blue hTLR7 cells with TLR7 ligands. Therefore the reporter expression was declined by TLR7 antagonist under the stimulation of a ligand, such as R848 (Resiquimod), for incubation of 20 hrs. The cell culture supernatant SEAP reporter activity was determined using QUANTI-Blue™ kit (Cat. #: rep-qbl, Invivogen, San Diego, Ca, USA) at a wavelength of 640 nm, a detection medium that turns purple or blue in the presence of alkaline phosphatase.
HEK293-Blue-hTLR7 cells were incubated at a density of 250,000-450,000 cells/mL in a volume of 170 μL in a 96-well plate in Dulbecco's Modified Eagle's medium (DMEM) containing 4.5 g/L glucose, 50 U/mL penicillin, […] streptomycin, […] Normocin, […] L-glutamine, 10% […] heat-inactivated fetal bovine serum with addition of 20 μL test compound in a serial dilution in the presence of final DMSO at 1% and 10 μL of 20 μM R848 in above DMEM, perform incubation under 37° C. in a CO2 incubator for 20 hrs. Then 20 μL of the supernatant from each well was incubated with 180 μL Quanti-blue substrate solution at 37° C. for 2 hrs and the absorbance was read at […] using a spectrophotometer. The signaling pathway that TLR7 activation leads to downstream NF-κB activation has been widely accepted, and therefore similar reporter assay was modified for evaluating TLR7 antagonist.
Consider `Cc1cc(N2CCC(c3cnc(N4CCNCC4)cc3C)[C@H](C)C2)c2cnn(C)c2n1` (single isomer, unassigned) [Example 20, 1,6-dimethyl-4-[cis-3-methyl-4-(4-methyl-6-piperazin-1-yl-3-pyridyl)-1-piperidyl]pyrazolo[3,4-b]pyridine], for which the IC50 amounted to 50 nM.

Take `Cc1cc(N2CCC(c3cnc(N4CCNCC4)cc3C)[C@H](C)C2)c2cnn(C)c2n1` (single isomer, unassigned) [Example 21, 1,6-dimethyl-4-[trans-3-methyl-4-(4-methyl-6-piperazin-1-yl-3-pyridyl)-1-piperidyl]pyrazolo[3,4-b]pyridine]: the IC50 turned out to be 16 nM.

With `Cc1cc(N2CCC(c3ncc(N4CCNCC4)nc3C)[C@H](C)C2)c2cnn(C)c2n1` (single isomer, unassigned) [Example 22, 1,6-dimethyl-4-[cis-3-methyl-4-(3-methyl-5-piperazin-1-yl-pyrazin-2-yl)-1-piperidyl]pyrazolo[3,4-b]pyridine], the IC50 stood at 49 nM.

For `Cc1cc(N2CCC(c3ncc(N4CCNCC4)nc3C)[C@H](C)C2)c2cnn(C)c2n1` (single isomer, unassigned) [Example 23, 1,6-dimethyl-4-[trans-3-methyl-4-(3-methyl-5-piperazin-1-yl-pyrazin-2-yl)-1-piperidyl]pyrazolo[3,4-b]pyridine], the IC50 is 11 nM.

On to `Cc1cc(N2CCC(c3ncc(N4CCNCC4)cc3C)[C@H](C)C2)c2cnn(C)c2n1` (single isomer, unassigned) [Example 24, 1,6-dimethyl-4-[cis-3-methyl-4-(3-methyl-5-piperazin-1-yl-2-pyridyl)-1-piperidyl]pyrazolo[3,4-b]pyridine], for which the IC50 was 82 nM.

`Cc1cc(N2CCC(c3ncc(N4CCNCC4)cc3C)[C@H](C)C2)c2cnn(C)c2n1` (single isomer, unassigned) [Example 25, 1,6-dimethyl-4-[trans-3-methyl-4-(3-methyl-5-piperazin-1-yl-2-pyridyl)-1-piperidyl]pyrazolo[3,4-b]pyridine]: the IC50 is 9 nM.

For `Cc1cc(N2CCC(c3ccc(N4CCNCC4)cc3)CC2)c2cnn(C)c2n1` [Example 1, 1,6-dimethyl-4-[4-(4-piperazin-1-ylphenyl)-1-piperidyl]pyrazolo[3,4-b]pyridine], the IC50 was 53 nM.

Take `Cc1cc(N2CCC(c3ccc(N4CCNCC4)cn3)CC2)c2cnn(C)c2n1` [Example 2, 1,6-dimethyl-4-[4-(5-piperazin-1-yl-2-pyridyl)-1-piperidyl]pyrazolo[3,4-b]pyridine]: the IC50 worked out at 27 nM.

In the case of `Cc1cc(N2CCC(c3cnc(N4CCNCC4)cn3)CC2)c2cnn(C)c2n1` [Example 3, 1,6-dimethyl-4-[4-(5-piperazin-1-ylpyrazin-2-yl)-1-piperidyl]pyrazolo[3,4-b]pyridine], the IC50 turned out to be 20 nM.

Regarding `Cc1cc(N2CCC(c3ncc(N4CCNCC4)cn3)CC2)c2cnn(C)c2n1` [Example 4, 1,6-dimethyl-4-[4-(5-piperazin-1-ylpyrimidin-2-yl)-1-piperidyl]pyrazolo[3,4-b]pyridine], the IC50 stood at 31 nM.

Consider `Cc1cc(N2CCNCC2)cnc1C1CCN(c2ccnc3c2cnn3C)CC1` [Example 5, 1-methyl-4-[4-(3-methyl-5-piperazin-1-yl-2-pyridyl)-1-piperidyl]pyrazolo[3,4-b]pyridine], for which the IC50 amounted to 8 nM.

With `Cc1cc(N2CCNCC2)ncc1C1CCN(c2ccnc3c2cnn3C)CC1` [Example 6, 1-methyl-4-[4-(4-methyl-6-piperazin-1-yl-3-pyridyl)-1-piperidyl]pyrazolo[3,4-b]pyridine], the IC50 stood at 7 nM.

Turning to `Cc1cc(N2CCC(c3ncc(N4CCNCC4)cc3C)CC2)c2cnn(C)c2n1` [Example 7, 1,6-dimethyl-4-[4-(3-methyl-5-piperazin-1-yl-2-pyridyl)-1-piperidyl]pyrazolo[3,4-b]pyridine], the IC50 stood at 11 nM.

In the case of `Cc1cc(N2CCC(c3cnc(N4CCNCC4)cc3C)CC2)c2cnn(C)c2n1` [Example 8, 1,6-dimethyl-4-[4-(4-methyl-6-piperazin-1-yl-3-pyridyl)-1-piperidyl]pyrazolo[3,4-b]pyridine], the IC50 came to 52 nM.

With `Cc1cc(N2CCC(c3cc(C)c(N4CCNCC4)cn3)CC2)c2cnn(C)c2n1` [Example 9, 1,6-dimethyl-4-[4-(4-methyl-5-piperazin-1-yl-2-pyridyl)-1-piperidyl]pyrazolo[3,4-b]pyridine], the IC50 was 39 nM.

Turning to `Cc1cc(N2CCC(c3ccc(N4CCNCC4)nc3C)CC2)c2cnn(C)c2n1` [Example 10, 1,6-dimethyl-4-[4-(2-methyl-6-piperazin-1-yl-3-pyridyl)-1-piperidyl]pyrazolo[3,4-b]pyridine], the IC50 worked out at 39 nM.

On to `Cc1cc(N2CCC(c3cnc(N4CCNCC4)nc3C)CC2)c2cnn(C)c2n1` [Example 11, 1,6-dimethyl-4-[4-(4-methyl-2-piperazin-1-yl-pyrimidin-5-yl)-1-piperidyl]pyrazolo[3,4-b]pyridine], for which the IC50 is 37 nM.

Consider `CCc1cc(N2CCNCC2)cnc1C1CCN(c2cc(C)nc3c2cnn3C)CC1` [Example 13, 4-[4-(3-ethyl-5-piperazin-1-yl-2-pyridyl)-1-piperidyl]-1,6-dimethyl-pyrazolo[3,4-b]pyridine], for which the IC50 was 26 nM.

As for `COc1cc(N2CCNCC2)cnc1C1CCN(c2cc(C)nc3c2cnn3C)CC1` [Example 14, 4-[4-(3-methoxy-5-piperazin-1-yl-2-pyridyl)-1-piperidyl]-1,6-dimethyl-pyrazolo[3,4-b]pyridine], the IC50 came to 12 nM.

`Cc1cc(N2CCC(c3ncc(N4CC[C@@H](N)[C@@H](F)C4)cc3C)CC2)c2cnn(C)c2n1` [Example 15, (3S,4R)-1-[6-[1-(1,6-dimethylpyrazolo[3,4-b]pyridin-4-yl)-4-piperidyl]-5-methyl-3-pyridyl]-3-fluoro-piperidin-4-amine]: the IC50 stood at 24 nM.

For `COC[C@H]1CN(c2cnc(C3CCN(c4cc(C)nc5c4cnn5C)CC3)c(C)c2)CCN1` [Example 16, 4-[4-[5-[(3R)-3-(methoxymethyl)piperazin-1-yl]-3-methyl-2-pyridyl]-1-piperidyl]-1,6-dimethyl-pyrazolo[3,4-b]pyridine], the IC50 was found to be 23 nM.

`CO[C@H]1CN(c2cnc(C3CCN(c4cc(C)nc5c4cnn5C)CC3)c(C)c2)CC[C@@H]1N` [Example 17, (3S,4S)-1-[6-[1-(1,6-dimethylpyrazolo[3,4-b]pyridin-4-yl)-4-piperidyl]-5-methyl-3-pyridyl]-3-methoxy-piperidin-4-amine]: the IC50 stood at 22 nM.

With `CO[C@@H]1CN(c2cnc([C@@H]3CCN(c4cc(C)nc5c4cnn5C)C[C@H]3C)c(C)c2)C[C@H]1N` [Example 26, (3R,4R)-1-[6-[(3S,4R)-1-(1,6-dimethylpyrazolo[3,4-b]pyridin-4-yl)-3-methyl-4-piperidyl]-5-methyl-3-pyridyl]-4-methoxy-pyrrolidin-3-amine], the IC50 amounted to 12 nM.

For the compound `Cc1cc(N2CC[C@@H](c3ncc(N4CC5(CNCCO5)C4)cc3C)[C@H](C)C2)c2cnn(C)c2n1` [Example 27, 2-[6-[(3S,4R)-1-(1,6-dimethylpyrazolo[3,4-b]pyridin-4-yl)-3-methyl-4-piperidyl]-5-methyl-3-pyridyl]-5-oxa-2,8-diazaspiro[3.5]nonane], the IC50 is 9 nM.
